A short description of the series: Aqueous solubility of compound at pH 7 by spectrophotometry. The following applies: aqueous solution.

For one compound, solubility results are on record in ChEMBL document CHEMBL1150298, “Sulfadiazine/hydroxypropyl-beta-cyclodextrin host-guest system: Characterization, phase-solubility and molecular modeling” (Bioorg Med Chem, 2008).

In brackets after ≈: the same amount, converted by molar mass.

What is called solubility is the dissolved amount per volume that the medium holds. High values mean much dissolved substance, low ones little dissolved substance. `Nc1ccc(S(=O)(=O)Nc2ncccn2)cc1` [SULFADIAZINE] displayed a solubility of 40 µg/mL (≈ 160 µM).
